Measured values taken from article PMC3985777 (Biochemistry, 2014).

Key:
HasAp [1] = biological target: HasAp (Pseudomonas aeruginosa, UniProt G3XD33, H83A); assay: biochemical
HasAp [2] = biological target: HasAp (Pseudomonas aeruginosa, UniProt G3XD33, Y75A); assay: biochemical

Structure (SMILES): C=CC1=C(C)C2=Cc3c(C=C)c(C)c4[n]3[Fe]([Cl])[n]3c(c(C)c(CCC(=O)O)c3=CC3=NC(=C4)C(C)=C3CCC(=O)O)=CC1=N2 [hemin]
- Kd (HasAp [1]): 30 µM
- Kd (HasAp [2]): 129 µM
